Results on 29 molecules are retold here after patent US10100058B2, “Fused heterocyclic compounds as CaM kinase inhibitors” (Gilead Sciences, Inc., priority 2016, dated 2018).

The assay deals with recombinant CaMKIIδ (Homo sapiens (Human), UniProt Q13557). In words: CaMKIIδ biochemical assay (HTRF). The following applies: 10 pM CaMKIIδ, 110 nM calmodulin, 12 μM ATP, 1 hour; read-out: CAMKIID-HTRF-384V2 (IC50 - nM). How it is done:
CaMKIIδ Biochemical Assay
The biochemical activity of recombinant CaMKIIδ was measured by monitoring the phosphorylation of a target peptide using Homogenous Time Resolved Fluorescence (HTRF) technology from CisBio Bioassays.

Turning to `CCN(CC)[C@@H](C)CNC(=O)c1cc(NCCC(C)(C)O)nc(-c2cnn3ccc(-c4cccs4)nc23)c1` [Example 221, (S)—N-(2-(diethylamino)propyl)-2-((3-hydroxy-3-methylbutyl)amino)-6-(5-(thiophen-2-yl)pyrazolo[1,5-a]pyrimidin-3-yl)isonicotinamide], the IC50 – broadly, the concentration that inhibits the measured activity by half – was found to be 0.13 nM. Take `CN(C)c1cc(C(=O)N2CC[C@H](N)C2)cc(-c2cnn3ccc(-c4cccs4)nc23)n1` [Example 109, (S)-(3-aminopyrrolidin-1-yl)(2-(dimethylamino)-6-(5-(thiophen-2-yl)pyrazolo[1,5-a]pyrimidin-3-yl)pyridin-4-yl)methanone]: the IC50 was found to be 20.8 nM. For the molecule `CCN(CC)[C@@H](C)CNC(=O)c1cc(-c2cnn3ccc(-c4cccs4)nc23)nc(N2CC[C@H]2C(=O)N2CC(NS(C)(=O)=O)C2)c1` [Example 286, N—((S)-2-(diethylamino)propyl)-2-((S)-2-(3-(methylsulfonamido)azetidine-1-carbonyl)azetidin-1-yl)-6-(5-(thiophen-2-yl)pyrazolo[1,5-a]pyrimidin-3-yl)isonicotinamide], the IC50 was 0.16 nM. As for `CCN(CC)[C@@H](C)CNC(=O)c1cc(-c2cnn3ccc(-c4cccs4)nc23)nc(N2CC[C@H]2C(=O)NCC2CC2)c1` [Example 278, 2-((S)-2-((cyclopropylmethyl)carbamoyl)azetidin-1-yl)-N—((S)-2-(diethylamino)propyl)-6-(5-(thiophen-2-yl)pyrazolo[1,5-a]pyrimidin-3-yl)isonicotinamide], the IC50 stood at 0.41 nM. For the molecule `CCN(CC)[C@@H](C)CNC(=O)c1cc(Cl)nc(-c2cnn3ccc(-c4cccs4)nc23)c1` [Example 103, (S)-2-chloro-N-(2-(diethylamino)propyl)-6-(5-(thiophen-2-yl)pyrazolo[1,5-a]pyrimidin-3-yl)isonicotinamide], the concentration for half-maximal inhibition (IC50) turned out to be 0.52 nM.

Take `CCN(CC)[C@@H](C)CNC(=O)c1cc(-c2cnn3ccc(-c4ccccc4)nc23)nc(N2CC(OC)C2)c1` [Example 160, (S)—N-(2-(diethylamino)propyl)-2-(3-methoxyazetidin-1-yl)-6-(5-phenylpyrazolo[1,5-a]pyrimidin-3-yl)isonicotinamide]: the IC50 is 1.15 nM.

As for `COc1cc(C(=O)N2CC[C@H](N)C2)cc(-c2cnn3ccc(-c4ccccc4)nc23)n1` [Example 126, (S)-(3-aminopyrrolidin-1-yl)(2-methoxy-6-(5-phenylpyrazolo[1,5-a]pyrimidin-3-yl)pyridin-4-yl)methanone], the IC50 was 65.6 nM. Regarding `CCN(CC)[C@@H](C)CNC(=O)c1cc(-c2cnn3ccc(-c4ccc(F)s4)nc23)nc(N2CC[C@H]2C(=O)NC)c1` [Example 361, N—((S)-2-(diethylamino)propyl)-2-(5-(5-fluorothiophen-2-yl)pyrazolo[1,5-a]pyrimidin-3-yl)-6-((S)-2-(methylcarbamoyl)azetidin-1-yl)isonicotinamide], the 50% inhibitory concentration (IC50) was 0.15 nM. On to `N[C@@H](CO)CNC(=O)c1ccnc(-c2cnn3ccc(-c4ccccc4)nc23)c1` [Example 57, (R)—N-(2-amino-3-hydroxypropyl)-2-(5-phenylpyrazolo[1,5-a]pyrimidin-3-yl)isonicotinamide], for which the 50% inhibitory concentration (IC50) came out at 26.5 nM.

Take `CCN(CC)[C@@H](C)CNC(=O)c1cc(N[C@@H](C)CO)nc(-c2cnn3ccc(-c4cccs4)nc23)c1` [Example 200, N—((S)-2-(diethylamino)propyl)-2-(((S)-1-hydroxypropan-2-yl)amino)-6-(5-(thiophen-2-yl)pyrazolo[1,5-a]pyrimidin-3-yl)isonicotinamide]: the IC50 stood at 0.16 nM.

As for `CCN(CC)[C@@H](C)CNC(=O)c1cc(-c2cnn3ccc(-c4cccs4)nc23)nc(N2CCNC2=O)c1` [Example 184, (S)—N-(2-(diethylamino)propyl)-2-(2-oxoimidazolidin-1-yl)-6-(5-(thiophen-2-yl)pyrazolo[1,5-a]pyrimidin-3-yl)isonicotinamide], the IC50 amounted to 1.16 nM. In the case of `COC1CN(c2cc(C(=O)N3CC[C@H](N)C3)cc(-c3cnn4ccc(-c5ccccc5)nc34)n2)C1` [Example 328, (S)-(3-aminopyrrolidin-1-yl)(2-(3-methoxyazetidin-1-yl)-6-(5-phenylpyrazolo[1,5-a]pyrimidin-3-yl)pyridin-4-yl)methanone], the 50% inhibitory concentration (IC50) amounted to 91.9 nM. Take `COC1CN(c2cc(C(=O)N3[C@H]4CCNC[C@@H]3CC4)cc(-c3cnn4ccc(-c5cccs5)nc34)n2)C1` [Example 326, ((1S,6R)-3,9-diazabicyclo[4.2.1]nonan-9-yl)(2-(3-methoxyazetidin-1-yl)-6-(5-(thiophen-2-yl)pyrazolo[1,5-a]pyrimidin-3-yl)pyridin-4-yl)methanone]: the half-maximal inhibitory concentration (IC50) was found to be 3.29 nM. Regarding `CCCC(N)CNC(=O)c1ccnc(-c2cnn3ccc(-c4ccccc4)nc23)c1` (centres unmarked) [Example 48, N-(2-aminopentyl)-2-(5-phenylpyrazolo[1,5-a]pyrimidin-3-yl)isonicotinamide], the IC50 is 25.7 nM. With `CCN(CC)[C@@H](C)CNC(=O)c1cc(-c2cnn3ccc(-c4cccs4)nc23)nc(N2CC(Oc3ccc(F)cc3)C2)c1` [Example 210, (S)—N-(2-(diethylamino)propyl)-2-(3-(4-fluorophenoxy)azetidin-1-yl)-6-(5-(thiophen-2-yl)pyrazolo[1,5-a]pyrimidin-3-yl)isonicotinamide] the figure was 18.2 nM; with `CCCNC(CC)CNC(=O)c1ccnc(-c2cnn3ccc(-c4ccccc4)nc23)c1` (centres unmarked) [Example 51, 2-(5-phenylpyrazolo[1,5-a]pyrimidin-3-yl)-N-(2-(propylamino)butyl)isonicotinamide], 9.61 nM.

For `O=C(NC[C@@H]1CCN1)c1ccnc(-c2cnn3ccc(-c4cccs4)nc23)c1` [Example 7, (S)—N-(azetidin-2-ylmethyl)-2-(5-(thiophen-2-yl)pyrazolo[1,5-a]pyrimidin-3-yl)isonicotinamide], the IC50 was found to be 6.05 nM. On to `N[C@H]1CCN(C(=O)c2ccnc(-c3cnn4ccc(-c5cccs5)nc34)c2)C1` [Example 85, (S)-(3-aminopyrrolidin-1-yl)(2-(5-(thiophen-2-yl)pyrazolo[1,5-a]pyrimidin-3-yl)pyridin-4-yl)methanone], for which the IC50 came to 4.8 nM. With `CCN(CC)[C@@H](C)CNC(=O)c1cc(-c2c(C)n[nH]c2C)nc(-c2cnn3ccc(-c4cccs4)nc23)c1` [Example 332, (S)—N-(2-(diethylamino)propyl)-2-(3,5-dimethyl-1H-pyrazol-4-yl)-6-(5-(thiophen-2-yl)pyrazolo[1,5-a]pyrimidin-3-yl)isonicotinamide], the half-inhibitory concentration (IC50) turned out to be 0.24 nM. Next, `N[C@H]1CCCN(C(=O)c2ccnc(-c3cnn4ccc(-c5cccs5)nc34)c2)C1` [Example 83, (S)-(3-aminopiperidin-1-yl)(2-(5-(thiophen-2-yl)pyrazolo[1,5-a]pyrimidin-3-yl)pyridin-4-yl)methanone]: 18.8 nM; `CCN(CC)[C@@H](C)CNC(=O)c1cc(-c2cnn3ccc(-c4cncnc4)nc23)nc(N2CC(OC)C2)c1` [Example 166, (S)—N-(2-(diethylamino)propyl)-2-(3-methoxyazetidin-1-yl)-6-(5-(pyrimidin-5-yl)pyrazolo[1,5-a]pyrimidin-3-yl)isonicotinamide]: 26 nM. With `CCN[C@@H](CO)CNC(=O)c1ccnc(-c2cnn3ccc(-c4ccccc4)nc23)c1` [Example 59, (R)—N-(2-(ethylamino)-3-hydroxypropyl)-2-(5-phenylpyrazolo[1,5-a]pyrimidin-3-yl)isonicotinamide], the IC50 turned out to be 5.34 nM. Next, `COC1CN(c2cc(C(=O)NC[C@@H]3CCCN3)cc(-c3cnn4ccc(-c5cccs5)nc34)n2)C1` [Example 255, (S)-2-(3-methoxyazetidin-1-yl)-N-(pyrrolidin-2-ylmethyl)-6-(5-(thiophen-2-yl)pyrazolo[1,5-a]pyrimidin-3-yl)isonicotinamide]: 33.9 nM; `CCN(CC)[C@@H](C)CNC(=O)c1cc(NC[C@H](C)O)nc(-c2cnn3ccc(-c4cccs4)nc23)c1` [Example 201, N—((S)-2-(diethylamino)propyl)-2-(((S)-2-hydroxypropyl)amino)-6-(5-(thiophen-2-yl)pyrazolo[1,5-a]pyrimidin-3-yl)isonicotinamide]: 0.11 nM. As for `CCN(CC)[C@@H](C)CNC(=O)c1cc(-c2cc[nH]n2)nc(-c2cnn3ccc(-c4cccs4)nc23)c1` [Example 336, (S)—N-(2-(diethylamino)propyl)-2-(1H-pyrazol-3-yl)-6-(5-(thiophen-2-yl)pyrazolo[1,5-a]pyrimidin-3-yl)isonicotinamide], the 50% inhibitory concentration (IC50) was 0.1 nM. `CCN(CC)[C@@H](C)CNC(=O)c1cc(-c2cnn3ccc(-c4cccs4)nc23)nc(N2CC[C@H]2COC)c1` [Example 265, N—((S)-2-(diethylamino)propyl)-2-((S)-2-(methoxymethyl)azetidin-1-yl)-6-(5-(thiophen-2-yl)pyrazolo[1,5-a]pyrimidin-3-yl)isonicotinamide]: the IC50 was determined as 0.42 nM. Take `CCN(CC)[C@@H](C)CNC(=O)c1cc(-c2cnn3ccc(-c4cccs4)nc23)nc(N2CC[C@H](OC)C2)c1` [Example 209, N—((S)-2-(diethylamino)propyl)-2-((S)-3-methoxypyrrolidin-1-yl)-6-(5-(thiophen-2-yl)pyrazolo[1,5-a]pyrimidin-3-yl)isonicotinamide]: the 50% inhibitory concentration (IC50) is 0.17 nM.

With `N[C@@H]1CCC[C@@H]2CCCN(C(=O)c3ccnc(-c4cnn5ccc(-c6cccs6)nc45)c3)[C@@H]21` [Example 86, ((4aR,8R,8aS)-8-aminooctahydroquinolin-1(2H)-yl)(2-(5-(thiophen-2-yl)pyrazolo[1,5-a]pyrimidin-3-yl)pyridin-4-yl)methanone], the half-inhibitory concentration (IC50) was 0.99 nM.

As for `CCN1CCC[C@H]1CNC(=O)c1cc(-c2cnn3ccc(-c4cccs4)nc23)nc(N2CC(OC)C2)c1` [Example 256, (S)—N-((1-ethylpyrrolidin-2-yl)methyl)-2-(3-methoxyazetidin-1-yl)-6-(5-(thiophen-2-yl)pyrazolo[1,5-a]pyrimidin-3-yl)isonicotinamide], the concentration for half-maximal inhibition (IC50) is 2.42 nM.
